# According to patent publication EP2118065B1, “Substituted 1H-benz[de]isoquinoline-1,3-diones” (priority 2007, dated 2008):
# Read-outs that look alike come from different tables or passages of the source.
# Columns and labels:
# S-180 = assay: In vivo anticancer activity: increase in median survival time; parameters: species or system Swiss albino male mice
# S-180 cells = assay: 3H-thymidine and 3H-uridine incorporation in vitro (DNA and RNA synthesis)
# HCT-15 = assay: SRB in vitro cytotoxicity, human tumor cell line; assay type: cell-based; conditions: 10^-5 M, Colon: HCT-15, read-out: growth inhibition
# Procedure: (§1) Compounds 3a-g were screened by sulforhodamine-B (SRB) semi-automated assay in a battery of cell lines. […] A., et. al. (1991); Feasibility high flux anticancer screen utilizing diverse panel of human tumor cell lines in culture. J Natl Cancer Inst. 83, 757-766]. Each compound was tested in triplicate sets of experiments at 10^-4 to 10^-6 M concentrations (Table 4).
# (§2) A stock solution of 2 x 10^-2M was prepared in DMSO. The stock solutions were serially diluted to obtain working test solutions with complete growth medium (RPMI-1640 medium with 2mM glutamine, 100µg/ml streptomycin, pH 7.4, sterilized by filtration and supplemented with 10% fetal bovine serum and 100 units/ml penicillin before use) containing 50 µg/ml of gentamycin to obtain working test solutions. The working test solutions were not filtered/ sterilized but microbial contamination was controlled by addition of gentamycin in complete growth medium used for dilution of stock solutions to prepare working test solutions.
# (§3) In vitro cytotoxicity against human cancer cell lines was determined^2 [Monk. A., et. al. (1991); Feasibility high flux anticancer screen utilizing diverse panel of human tumor cell lines in culture. J Natl Cancer Inst. 83, 757-766] using 96-well tissue culture plates. The cells were grown in tissue culture flasks in complete growth medium at 37°C in an atmosphere of 5% CO2 and 95% relative humidity in a carbon dioxide incubator. The cell suspension of required cell density (1-2 lakhs/ml) depending on the mass doubling time of cell lines was prepared in complete growth medium for determination of cytotoxicity. The aliquots of 100 µl of cell suspension were added to each well on a 96-well tissue culture plate. The blank wells contained complete medium in place of cell suspension. Simultaneously, control experiments with positive controls containing known anticancer agents were carried out. Cells were incubated for 24 hr.
# (§4) The test materials (100 µl in each well) were added after 24-hours to the wells containing cell suspension and blank wells. The cells were allowed to grow in presence of test material by further incubating the plates for 48 hours. At the end of incubation period the cell growth was stopped by gently layering trichloroacetic acid (50% TCA, 50µl/well) on top of the medium in all the wells. The plates were incubated at 4°C for 1 hr. The plates were washed five times with distilled water to remove TCA, growth medium, low molecular weight metabolites, serum proteins etc. and air-dried.
# (§5) The cell growth was measured^3 [Skehan, P, Storeng, R Scudiero, D, Monks, A, Mcmahon, J, Vistica, D, Warren, J.T., Bokesch, H., Kenney, S., Boyd, M.R. (1990). New colorimetric cytotoxicity assay for anti-cancer drug screening. J Natl Cancer Inst. 82: 1107-12] by staining with Sulphorhodamine B. Sulphorhodamine B (SRB, 0.4% in 1% acetic acid, 100 µl/well) was added to each well and plates were allowed to stand at room temperature for 30 minutes. The plates were washed with 1% acetic acid four times and then dried. Tris-HCl buffer (0.01 M, pH 10.5, 100 µl/well) was added to each well to solublise the dye. The plates were shaken gently for 10 minutes on a shaker and the optical density was recorded on ELISA reader at 540 nm. The cell growth was determined by subtracting mean OD value of respective blank from the mean OD value of experimental set. Percent growth in presence of test material was calculated considering the growth in absence of any test material as 100% and in turn percent growth inhibition in presence of test material was calculated. All the experiments were carried out in quadruplicate.
# 502713 = assay: SRB in vitro cytotoxicity, human tumor cell line; assay type: cell-based; conditions: 10^-5 M, Colon: 502713, read-out: growth inhibition
# Procedure: as §1, §2, §3, §4, §5
# IMR-32 = assay: SRB in vitro cytotoxicity, human tumor cell line; assay type: cell-based; conditions: 10^-5 M, Neuroblastoma: IMR-32, read-out: growth inhibition
# Procedure: as §1, §2, §3, §4, §5
# SW-620 = assay: SRB in vitro cytotoxicity, human tumor cell line; assay type: cell-based; conditions: 10^-5 M, Colon: SW-620, read-out: growth inhibition
# Procedure: as §1, §2, §3, §4, §5
# HL-60 human leukemia = assay: MTT in vitro cytotoxicity; conditions: read-out: IC50 value Leukemia HL-60
# U-937 lymphoma = assay: MTT in vitro cytotoxicity; conditions: read-out: IC50 value Lymphoma U-937
# HL-60 cells = assay: Annexin V-FITC/PI flow cytometric analysis of apoptosis; assay type: cell-based, human; conditions: 24 h
# Procedure: Induction of apoptosis in vitro by Compound 3b and 3f was further determined in HL-60 cells by flow cytometric assay using an Annexin V-FITC Apoptosis Detection Kit (BD Biosciences Pharmingen, San Diego, USA). Camptothecin was included in the study for comparison. Exponentially growing HL-60 cells in complete RPMI-1640 media (100 µl of 5×10^6) were plated in six well plates. 10 µl of each Compound in DMSO (5 and 10 µM concentrations) was added to the wells followed by the addition of required media (total volume 1ml). Plates were incubated at 37°C for 24 h. The cells were centrifuged at room temperature at 1500 rpm for 5 min. The pellet was washed twice with cold PBS and was re-suspended in the binding buffer (1X, 100µl) provided in the Kit. The cells were stained with Annexin V-FITC (5 µl) and Propidium Iodide [PI] (5µl) and incubated for 15 min in the dark at 25°C. Next 400µl of binding buffer was added to each tube and analyzed on a FACScan flow cytometer (Becton Dickinson, Mountainview, CA) using Cell Quest software. Cells stained with both Annexin-V-FITC and PI, containing DMSO as vehicle was used as stained control. Cells that were annexin^+ /Pr [Lower right quadrant (LR)] and annexin^+/PI^+ [Upper right quadrant (UR)] were considered as early apoptotic and late apoptotic respectively.
# MOLT-4 cells [1] = assay: Flow cytometric DNA cell cycle analysis (sub-G1 fraction); assay type: cell-based, Human; conditions: camptothecin 1µM, 3 hrs
# Procedure: Effect of DNA content by cell cycle phase distribution was assessed using MOLT-4 cells. […] The incubation period was 3 hrs in case of camptothecin and 24 hrs. in rest of the treatments. The cells were then washed twice with ice-cold PBS, harvested, fixed with ice-cold PBS in 70% ethanol, and stored at -20 °C for 30 min. After fixation, the cells were incubated with RNase A (0.1 mg/ml) at 37°C for 30 min, stained with propidium iodide (50 µg/ml) for 30 min on ice in dark, and then measured for DNA content using BD-LSR Flow cytometer (Becton Dickinson, USA) equipped with electronic doublet, discrimination capability using blue (488nm) excitation from argon laser. Data were collected in list mode on 10,000 events for FL2-A vs. FL2-W and analyzed using Mod Fit 2.0 software (Fig 4). […] The sub-G1 fractions for control and camptothecin were 0.64 (Fig. 4A) and 11.92 % (Fig. 4B).
# MOLT-4 cells [2] = assay: Annexin V-FITC/PI flow cytometric analysis of apoptosis; assay type: cell-based, Human; conditions: 5µM, 6 hrs
# Procedure: Events of apoptosis were analyzed using Annexin V-FITC Apoptosis Detection Kit (A 2214 Sigma Aldrich, USA). Human leukemia Cells (MOLT-4, 1x10^6 cells/ml) in 6-well plate were treated with Compound 3f (3 and 5µg/ml), camptothecin (5µM) and incubated for 6 hrs. After incubation, the cells were centrifuged, rinsed with PBS twice and re-suspended in binding buffer (10 mM HEPES/NaOH, pH 7.5 containing 0.14M NaCl and 25 mM CaCl2). An aliquot (500 µl) of suspension was stained with of Annexin V-FITC (5 µl) and Propidium Iodide (10 µl). The cells were stored for 10 minutes at room temperature in the dark and then analyzed by BD-LSR flow cytometer (Becton Dickinson, USA) at two wavelengths to measure fluorescence for of Annexin V & PI binding at 515 and 639 nm.
# [3] = S-180, 30 mg/kg i.p., 7 injns., days 1-7
# [4] = S-180, 60 mg/kg i.p., 7 injns., days 1-7
# [5] = S-180, 60 mg/kg i.p., 7 injns., days 5-11
# [6] = S-180, 0.5 mg/kg i.p., 7 injns., days 1-7
# [7] = S-180, 1 mg/kg i.p., 7 injns., days 1-7
# [8] = S-180, 20 mg/kg i.p., 7 injns., days 1-7
# [9] = S-180, 6 mg/kg i.p., 7 injns., days 1-7
compound,measurement,setting,value
"O=C1c2cccc3cc([N+](=O)[O-])cc(c23)C(=O)N1CCCCl [Compound 3g, 5-Nitro-2-[3-(Chloropropyl)]-1H-benz[de]isoquinoline-1,3-dione]",MST,S-180; [3],25.5 days
same,T/C %,S-180; [3],106%
same,MST,S-180; [4],24.0 days
same,T/C %,S-180; [4],129%
same,MST,S-180; [5],25.0 days
same,T/C %,S-180; [5],104%
"CN(C)CCN1C(=O)c2cccc3cc([N+](=O)[O-])cc(c23)C1=O [Mitonafide, reference compound]",inhibition at 8 µM,"S-180 cells; Mus musculus, S-180, read-out: DNA synthesis inhibition (3H-thymidine uptake)",93%
same,RNA synthesis inhibition (3H-uridine uptake),"S-180 cells; S-180 cells, 8 µM, 1 hr incubation, with respect to control",92%
same,MST,S-180; [6],36.5 days
same,Survivors > 60 days,S-180; [6],1
same,T/C %,S-180; [6],187%
same,MST,S-180; [7],25.0 days
same,T/C %,S-180; [7],128%
"O=C1c2cccc3c([N+](=O)[O-])ccc(c23)C(=O)N1CCCl [Compound 3b, 6-Nitro-2-[2-(Chloroethyl)]-1H-benz[de]isoquinoline-1,3-dione]",inhibition at 10 µM,HCT-15,> 50%
same,inhibition at 10 µM,502713,> 50%
same,inhibition at 10 µM,IMR-32,> 50%
same,inhibition at 10 µM,SW-620,> 50%
same,IC50,"HL-60 human leukemia; Homo sapiens, HL-60, 96 h",0.8 µM
same,IC50,"U-937 lymphoma; Homo sapiens, U-937, 96 h",0.66 µM
same,"early apoptotic cells (Annexin V^+/PI^-), LR",HL-60 cells; 5 µM,4.5%
same,"late apoptotic cells (Annexin V^+/PI^+), UR",HL-60 cells; 5 µM,5.2%
same,total apoptotic cells (apoptotic cell population),HL-60 cells; 5 µM,9.7%
same,"early apoptotic cells (Annexin V^+/PI^-), LR",HL-60 cells; 10 µM,15.3%
same,"late apoptotic cells (Annexin V^+/PI^+), UR",HL-60 cells; 10 µM,33.5%
same,total apoptotic cells (apoptotic cell population),HL-60 cells; 10 µM,48.8%
same,MST,"S-180; S-180, 40 mg/kg i.p., 7 injns., days 1-7",20.5 days
same,MST,"S-180; S-180, 80 mg/kg i.p., 7 injns., days 1-7",23.0 days
"O=c1[nH]cc(F)c(=O)[nH]1 [Compound 5-FU, 5-fluorouracil, reference compound]",IC50,"HL-60 human leukemia; Homo sapiens, HL-60, 96 h",266 µM
same,IC50,"U-937 lymphoma; Homo sapiens, U-937, 96 h",4.7 µM
same,MST,S-180; [8],53.5 days
same,Survivors > 60 days,S-180; [8],3
same,T/C %,S-180; [8],233%
same,T/C %,"S-180; mouse, in vivo",233
"O=NN(CCCl)C(=O)NCCCl [BCNU, Bis (2-chloroethyl-nitrosourea)]",IC50,"HL-60 human leukemia; MTT, 96 h",30.5 µM
same,IC50,"U-937 lymphoma; MTT, 96 h",12.3 µM
"CC[C@@]1(O)C(=O)OCc2c1cc1n(c2=O)Cc2cc3ccccc3nc2-1 [camptothecin, reference compound]",sub-G1 fraction,MOLT-4 cells [1],11.92%
same,total apoptotic cells,MOLT-4 cells [2],8.83%
same,"early apoptotic cells (Annexin V^+/PI^-), LR",HL-60 cells; 5 µM,7.79%
same,"late apoptotic cells (Annexin V^+/PI^+), UR",HL-60 cells; 5 µM,5.46%
same,total apoptotic cells (apoptotic cell population),HL-60 cells; 5 µM,13.3%
same,"early apoptotic cells (Annexin V^+/PI^-), LR",HL-60 cells; 10 µM,10.52%
same,"late apoptotic cells (Annexin V^+/PI^+), UR",HL-60 cells; 10 µM,5.30%
same,total apoptotic cells (apoptotic cell population),HL-60 cells; 10 µM,15.8%
NC(=O)NO [Hydroxyurea],IC50,"HL-60 human leukemia; Homo sapiens, HL-60, 96 h",204 µM
same,IC50,"U-937 lymphoma; Homo sapiens, U-937, 96 h",115 µM
"O=P1(N(CCCl)CCCl)NCCCO1 (stereo not shown) [Cyclophosphamide, reference compound]",MST,S-180; [9],33.0 days
same,T/C %,S-180; [9],143%
N.N.[Cl][Pt][Cl] [Cis-Platinum],IC50,"HL-60 human leukemia; MTT, 96 h",7 µM
same,IC50,"U-937 lymphoma; MTT, 96 h",3.2 µM
